This passage reports IC50 results from patent US12371428B2 (Exelixis, Inc., priority 2019, dated 2025).

The target in test [1] is Met (phospho-Met, HGF-stimulated PC-3 prostate cancer cells) (Homo sapiens (Human), UniProt P08581). Kind of test: Met autophosphorylation ELISA in PC-3 cells (Example F). It counts as cell-based. The conditions noted are these: cellular activity; Met autophosphorylation ELISA in PC-3 cells; read-out: c-Met IC50. The method in brief:
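Sandwich ELISA for phospho-Met (panTyr) in PC-3 lysates. Cells starved 3 h serum-free, compound 1 h (8-pt curve, 0.3% DMSO), HGF 100 ng/mL 10 min. 100% = HGF + DMSO; 0% = HGF + reference inhibitor. IC50 by 4-parameter fit.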
(In general: In an ELISA, binding on a coated surface is turned into a signal by an enzyme label.)

Test [2] deals with Human MET (residues 956-1390) (Homo sapiens (Human), UniProt P08581). Kind of test: Human Met kinase assay, HTRF KinEase (Example D-2). It counts as biochemical. The settings on record: protocol of Example D-2 (other compounds); read-out: c-Met IC50. In a few lines: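 HTRF KinEase assay on MET residues 956-1390 (0.1 ng/well) in buffer with 5 mM MgCl2, 1 mM DTT and 1 mM MnCl2, with biotinylated peptide substrate, ATP at Km, 10 compound concentrations and 3% DMSO final, run 40 min at room temperature. The […] signal was normalized to DMSO and to 1 μM reference compound, and IC50 came from a 4-parameter logistic fit.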
Human MET (residues 956-1390), sequence (P08581 956-1390): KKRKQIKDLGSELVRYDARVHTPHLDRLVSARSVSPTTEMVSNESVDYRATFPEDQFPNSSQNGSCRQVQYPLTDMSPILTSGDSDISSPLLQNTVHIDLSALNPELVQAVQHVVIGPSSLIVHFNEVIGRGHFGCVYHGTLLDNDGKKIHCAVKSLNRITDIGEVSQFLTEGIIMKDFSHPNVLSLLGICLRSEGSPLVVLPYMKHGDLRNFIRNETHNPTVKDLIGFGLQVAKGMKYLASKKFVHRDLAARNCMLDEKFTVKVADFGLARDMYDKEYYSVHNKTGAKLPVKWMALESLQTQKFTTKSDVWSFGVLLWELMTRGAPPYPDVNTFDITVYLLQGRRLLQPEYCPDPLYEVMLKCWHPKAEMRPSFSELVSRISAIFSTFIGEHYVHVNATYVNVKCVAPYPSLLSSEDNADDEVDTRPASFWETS
(TR-FRET usually uses a lanthanide donor and a delayed reading to cut background.)

Met (phospho-Met, HGF-stimulated PC-3 prostate cancer cells), sequence (P08581 25-1390): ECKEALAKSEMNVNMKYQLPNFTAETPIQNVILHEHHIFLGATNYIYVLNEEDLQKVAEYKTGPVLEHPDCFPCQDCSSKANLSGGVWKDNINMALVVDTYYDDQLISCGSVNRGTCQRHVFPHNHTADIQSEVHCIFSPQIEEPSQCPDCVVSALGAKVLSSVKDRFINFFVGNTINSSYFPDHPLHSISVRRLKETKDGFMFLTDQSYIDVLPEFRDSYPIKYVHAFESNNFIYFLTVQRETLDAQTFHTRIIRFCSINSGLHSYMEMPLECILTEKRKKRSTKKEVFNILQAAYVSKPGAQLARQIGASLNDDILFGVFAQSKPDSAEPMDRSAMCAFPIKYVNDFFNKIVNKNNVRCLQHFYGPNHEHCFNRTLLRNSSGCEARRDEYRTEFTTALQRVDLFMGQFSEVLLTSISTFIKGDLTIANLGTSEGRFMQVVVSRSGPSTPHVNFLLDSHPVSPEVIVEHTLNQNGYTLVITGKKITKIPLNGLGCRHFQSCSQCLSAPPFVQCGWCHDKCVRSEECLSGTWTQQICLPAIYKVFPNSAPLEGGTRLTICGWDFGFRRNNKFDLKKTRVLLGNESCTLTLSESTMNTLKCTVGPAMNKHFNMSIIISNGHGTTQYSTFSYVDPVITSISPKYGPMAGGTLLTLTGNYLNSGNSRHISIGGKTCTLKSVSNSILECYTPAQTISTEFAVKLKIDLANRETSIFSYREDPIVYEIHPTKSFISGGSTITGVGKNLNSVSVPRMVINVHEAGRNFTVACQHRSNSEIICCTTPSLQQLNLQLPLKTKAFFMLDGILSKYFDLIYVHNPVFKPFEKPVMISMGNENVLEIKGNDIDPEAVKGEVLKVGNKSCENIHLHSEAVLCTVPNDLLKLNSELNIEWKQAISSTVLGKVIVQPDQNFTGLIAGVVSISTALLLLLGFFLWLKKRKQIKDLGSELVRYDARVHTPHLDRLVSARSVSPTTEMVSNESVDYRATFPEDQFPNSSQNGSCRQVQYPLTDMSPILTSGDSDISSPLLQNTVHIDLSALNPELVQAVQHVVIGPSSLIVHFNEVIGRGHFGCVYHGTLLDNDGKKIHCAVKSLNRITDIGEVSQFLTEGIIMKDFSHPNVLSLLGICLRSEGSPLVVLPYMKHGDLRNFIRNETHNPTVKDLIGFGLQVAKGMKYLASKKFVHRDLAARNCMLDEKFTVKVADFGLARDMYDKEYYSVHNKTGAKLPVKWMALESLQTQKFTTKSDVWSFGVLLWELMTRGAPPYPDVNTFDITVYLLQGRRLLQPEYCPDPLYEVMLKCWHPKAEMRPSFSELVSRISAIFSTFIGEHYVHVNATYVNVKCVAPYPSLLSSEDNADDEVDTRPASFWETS

Broadly, the IC50 is the concentration that gives 50% inhibition. As to `COc1cc2nccc(Oc3ccc(NC(=O)c4cccn(-c5ccc(F)cc5)c4=O)cc3F)c2nc1OC` [Compound 293, N-[4-[(6,7-Dimethoxy-1,5-naphthyridin-4-yl)oxy]-3-fluorophenyl]-1-(4-fluorophenyl)-2-oxopyridine-3-carboxamide], the IC50 in test [1] and in test [2] was less than 100 nM throughout.
With `COc1cnc2c(Oc3ccc(NC(=O)c4c(C)ccn(-c5ccc(F)cc5)c4=O)cc3F)ccnc2c1` [Compound 294, N-[3-Fluoro-4-[(7-methoxy-1,5-naphthyridin-4-yl)oxy]phenyl]-1-(4-fluorophenyl)-4-methyl-2-oxopyridine-3-carboxamide], the IC50 in test [1] and in test [2] was less than 100 nM each time.
For the compound `Cc1cc(C)n(-c2ccc(F)cc2)c(=O)c1C(=O)Nc1ccc(Oc2ccnc3cccnc23)c(F)c1` [Compound 295, N-[3-Fluoro-4-(1,5-naphthyridin-4-yloxy)phenyl]-1-(4-fluorophenyl)-4,6-dimethyl-2-oxopyridine-3-carboxamide], the IC50 in test [1] and in test [2] was less than 100 nM in each case.
As for `COc1ccc2nccc(Oc3ccc(NC(=O)c4c(C)cc(C)n(-c5ccc(F)cc5C)c4=O)cc3F)c2n1` [Compound 296, N-[3-Fluoro-4-[(6-methoxy-1,5-naphthyridin-4-yl)oxy]phenyl]-1-(4-fluoro-2-methylphenyl)-4,6-dimethyl-2-oxopyridine-3-carboxamide], the IC50 in test [1] was less than 100 nM; in test [2], 100 to 300 nM.
On to `Cc1ccc2nccc(Oc3ccc(NC(=O)c4c(C)cc(C)n(-c5ccc(F)cc5)c4=O)cc3F)c2n1` [Compound 297, N-[3-Fluoro-4-[(6-methyl-1,5-naphthyridin-4-yl)oxy]phenyl]-1-(4-fluorophenyl)-4,6-dimethyl-2-oxopyridine-3-carboxamide], for which the IC50 in test [1] and in test [2] was less than 100 nM each time.
Take `COc1cc2nccc(Oc3ccc(NC(=O)c4c(C)cc(C)n(-c5ccc(F)cc5C)c4=O)cc3F)c2nc1OC` [Compound 298, N-[4-[(6,7-Dimethoxy-1,5-naphthyridin-4-yl)oxy]-3-fluorophenyl]-1-(4-fluoro-2-methylphenyl)-4,6-dimethyl-2-oxopyridine-3-carboxamide]: the IC50 in test [1] was less than 100 nM; in test [2], 100 to 300 nM.
For the compound `COc1cc2nccc(Oc3ccc(NC(=O)c4c(C)ccn(-c5ccc(F)cc5)c4=O)cc3)c2nc1OC` [Compound 299, N-[4-[(6,7-Dimethoxy-1,5-naphthyridin-4-yl)oxy]phenyl]-1-(4-fluorophenyl)-4-methyl-2-oxopyridine-3-carboxamide], the IC50 in test [1] and in test [2] was less than 100 nM throughout.
Regarding `COc1cnc2c(Oc3ccc(NC(=O)c4c(C)ccn(-c5ccc(F)cc5)c4=O)cc3)ccnc2c1` [Compound 300, 1-(4-Fluorophenyl)-N-[4-[(7-methoxy-1,5-naphthyridin-4-yl)oxy]phenyl]-4-methyl-2-oxopyridine-3-carboxamide], the IC50 in test [1] is less than 100 nM; in test [2], 100 to 300 nM.
For `COCc1ncc(C(=O)Nc2ccc(Oc3ccnc4cc(OC)c(OC)nc34)c(F)c2)c(O)c1-c1ccc(F)cc1` [Compound 301, N-[4-[(6,7-Dimethoxy-1,5-naphthyridin-4-yl)oxy]-3-fluorophenyl]-5-(4-fluorophenyl)-4-hydroxy-6-(methoxymethyl)pyridine-3-carboxamide] the same measures were less than 100 nM and less than 100 nM.
The corresponding values for `COc1ccc2nccc(Oc3ccc(NC(=O)c4c(C)nc(C)c(-c5ccc(F)cc5)c4O)cc3)c2n1` [Compound 340, 5-(4-fluorophenyl)-4-hydroxy-N-[4-[(6-methoxy-1,5-naphthyridin-4-yl)oxy]phenyl]-2,6-dimethylpyridine-3-carboxamide] are less than 100 nM and less than 100 nM.
In the case of `COc1ccc2nccc(Oc3ccc(NC(=O)c4cn(C(C)C)c(C)c(-c5ccc(F)cc5)c4=O)cc3)c2n1` [Compound 341, 5-(4-fluorophenyl)-N-[4-[(6-methoxy-1,5-naphthyridin-4-yl)oxy]phenyl]-6-methyl-4-oxo-1-propan-2-ylpyridine-3-carboxamide], the IC50 in test [1] and in test [2] was less than 100 nM in each case.
Turning to `COc1ccc2nccc(Oc3ccc(NC(=O)c4cnc(C)c(-c5ccc(F)cc5)c4O)cc3)c2n1` [Compound 342, 5-(4-fluorophenyl)-4-hydroxy-N-[4-[(6-methoxy-1,5-naphthyridin-4-yl)oxy]phenyl]-6-methylpyridine-3-carboxamide], the IC50 in test [1] and in test [2] was less than 100 nM throughout.
For the compound `COc1ccc2nccc(Oc3ccc(NC(=O)c4ccc(C)n(-c5ccc(F)cc5)c4=O)cc3)c2n1` [Compound 343, 1-(4-fluorophenyl)-N-[4-[(6-methoxy-1,5-naphthyridin-4-yl)oxy]phenyl]-6-methyl-2-oxopyridine-3-carboxamide], the IC50 in test [1] and in test [2] was less than 100 nM in each case.
Consider `COc1ccc2nccc(Oc3ccc(NC(=O)c4c(C)nc(C)c(-c5ccc(F)cc5)c4O)cc3F)c2c1` [Compound 345, N-[3-fluoro-4-(6-methoxyquinolin-4-yl)oxyphenyl]-5-(4-fluorophenyl)-4-hydroxy-2,6-dimethylpyridine-3-carboxamide], for which the IC50 in test [1] and in test [2] was less than 100 nM in each case.
Regarding `COc1ccc2nccc(Oc3ccc(NC(=O)c4ccc(C)n(-c5ccc(F)cc5)c4=O)cc3F)c2c1` [Compound 346, N-[3-fluoro-4-(6-methoxyquinolin-4-yl)oxyphenyl]-1-(4-fluorophenyl)-6-methyl-2-oxopyridine-3-carboxamide], the IC50 in test [1] and in test [2] was less than 100 nM throughout.
With `COc1ccc2nccc(Oc3ccc(NC(=O)c4cnc(C)c(-c5ccc(F)cc5)c4O)cc3F)c2c1` [Compound 347, N-[3-fluoro-4-(6-methoxyquinolin-4-yl)oxyphenyl]-5-(4-fluorophenyl)-4-hydroxy-6-methylpyridine-3-carboxamide], the IC50 in test [1] and in test [2] was less than 100 nM throughout.
For `COCCOc1ccc2nccc(Oc3ccc(NC(=O)c4ccc(C)n(-c5ccc(F)cc5)c4=O)cc3F)c2n1` [Compound 350, N-[3-fluoro-4-[[6-(2-methoxyethoxy)-1,5-naphthyridin-4-yl]oxy]phenyl]-1-(4-fluorophenyl)-6-methyl-2-oxopyridine-3-carboxamide], the IC50 in test [1] and in test [2] was less than 100 nM each time.
Consider `Cc1ccc(C(=O)Nc2ccc(Oc3ccnc4ccc(OCCN5CCOCC5)nc34)c(F)c2)c(=O)n1-c1ccc(F)cc1` [Compound 351, N-[3-fluoro-4-[[6-(2-morpholin-4-ylethoxy)-1,5-naphthyridin-4-yl]oxy]phenyl]-1-(4-fluorophenyl)-6-methyl-2-oxopyridine-3-carboxamide], for which the IC50 in test [1] and in test [2] was less than 100 nM each time.
For the compound `Cc1ncc(C(=O)Nc2ccc(Oc3ccnc4ccc(OCCN5CCOCC5)nc34)c(F)c2)c(O)c1-c1ccc(F)cc1` [Compound 352, N-[3-fluoro-4-[[6-(2-morpholin-4-ylethoxy)-1,5-naphthyridin-4 yl]oxy]phenyl]-5-(4-fluorophenyl)-4-hydroxy-6-methylpyridine-3-carboxamide], the IC50 in test [1] and in test [2] was less than 100 nM in each case.
